Key:
[1] = Plasma pharmacokinetics in naive Balb/C mouse, LC-MS/MS; format: in vivo; conditions: 1.5 mg/kg single IV; for AUC∞, norm / Cmax, norm: n = 3, dose-normalised; for AUC(0-inf) / AUC(0-t) / C0 / Cmax / clearance / half-life / Vd: female; for AUC(0-inf) / AUC(0-t) / C0 / Cmax: n = 3, plasma; for clearance / half-life / Vd: plasma; for clearance / half-life: n = 3; for Vd: n = 3, read-out: VSS
Protocol: For in vivo evaluation of STING agonist compounds described herein in naïve Balb/C mouse, single doses of STING agonist compounds were given at 1.5 mg/kg intravenously into female BALB/c mice (Orientbio, South Korea) at 6-8 weeks of age. Pharmacokinetics were studied following injection of the STING agonist compounds into Balb/C mice. Plasma samples were taken at various time points and stored frozen for analysis. The plasma concentrations of the STING agonist compounds at the indicated time points were measured using a LC-MS/MS analysis method.
Briefly, 250 μL of acetonitrile (ACN) solution was added in both 50 μL of sample and 50 μL of plasma containing 10 nM Dextromethorphan (internal standard), and the solutions were mixed vigorously using a vortex mixer for 5 minutes. The samples were then spun down at 14,000 rpm, 4° C. for 5 minutes. 100 μL of supernatants were combined with 100 μL of mobile phase A (0.1% formic acid in water with 5% ACN) and mixed thoroughly. The samples were measured for the STING agonist compounds using a LC-MS/MS (Nexera LC40 (SHIMADZU) and QTRAP4500 (SCIEX)).

[2] = Normal cell cytotoxicity in PBMCs, CellTiter-Glo; format: cell-based; conditions: human, read-out: In vitro cell cytotoxicity in PBMCs CC50
Protocol: PBMCs were also purchased from […]™ (#700025.2). The cells (8.0×10^4 cells per well) were seeded in a flat-bottomed 96-well plate in RPMI 1640 medium (Gibco, #22400097) with 10% heat-inactivated FBS and 1× Antibiotic-Antimycotic (Gibco, #15240062) and rested for 24 hours at 37° C. […] After 72 hours, the cell viability was measured using CellTiter-Glo Luminescent Cell Viability Assay (Promega, #G7573) according to the manufacture's instruction. The signal was detected using an EnVision Xcite multilabel reader and data were analyzed using GraphPad Prism 8 software.
To verify the effect of the STING agonist compounds in normal cell cytotoxicity, the PBMCs were treated with the STING agonist compounds for 3 days and measured the percentage of cell death.

[3] = Normal cell cytotoxicity in CD34+ HSC, CellTiter-Glo; format: cell-based; conditions: human, CD34+ hematopoietic stem cells (HSCs), read-out: In vitro cell cytotoxicity in CD34+ HSC CC50
Protocol: The CD34^+ hematopoietic stem cells (HSCs) were purchased from […]™ (#70002.3). The cells (2×10^4 cells per well) were cultured in StemSpan™ SFEM II medium supplemented with StemSpan™ CD34+ Expansion Supplement (#02691) in a 6-well plate at 37° C. for 7 days. On day 3 or 4, an equal volume of fresh complete medium was added into the cell culture. On day 7, the cells (4×10^4 cells per well) were seeded in a 96-well white plate and rested for 24 hours in the same condition.
After 72 hours, the cell viability was measured using CellTiter-Glo Luminescent Cell Viability Assay (Promega, #G7573) according to the manufacture's instruction. The signal was detected using an EnVision Xcite multilabel reader and data were analyzed using GraphPad Prism 8 software.

hSTING-WT (R232) = biological target: T1, hSTING-WT (R232) (Homo sapiens, UniProt Q86WV6, H232R); assay: STING activation, THP1-Dual IRF3 reporter assay, hSTING-R232 cells; format: cell-based; conditions: IRF3 luciferase reporter, 24 hours, read-out: STING activity using hSTING-R232 cells EC50
T1 construct: host or cells: THP1-Dual cells (human monocytes) with knocked-in hSTING R232
T1 sequence (Q86WV6 whole entry H232R): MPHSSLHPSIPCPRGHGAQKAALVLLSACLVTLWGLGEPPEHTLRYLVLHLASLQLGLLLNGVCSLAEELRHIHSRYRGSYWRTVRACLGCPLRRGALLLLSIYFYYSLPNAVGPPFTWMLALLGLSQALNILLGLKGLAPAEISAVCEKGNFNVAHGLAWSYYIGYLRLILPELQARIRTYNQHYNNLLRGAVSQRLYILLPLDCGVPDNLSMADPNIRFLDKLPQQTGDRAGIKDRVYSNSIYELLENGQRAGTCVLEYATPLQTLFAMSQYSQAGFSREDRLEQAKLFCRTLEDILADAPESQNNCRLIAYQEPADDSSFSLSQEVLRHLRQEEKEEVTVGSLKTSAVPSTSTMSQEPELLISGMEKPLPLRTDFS
Protocol: (§1) To assess potency of STING agonist compounds described herein, THP1-Dual™ Cells (NF—KB-SEAP and IRF-Lucia luciferase reporter monocytes, InvivoGen) were used. The reporter cells were knocked-in either of hSTING-WT (R232, #thpd-r232), HAQ variant (#thpd-nfis), or H232 variant (#thpd-h232). All cells were cultured at 37° C. in a humidified incubator at 5% CO2 and maintained in RPMI 1640 medium (Gibco, #22400097) supplemented with 10% heat-inactivated FBS and 1×Pen-Strep (Gibco, #15140122). To measure STING agonist-mediated IRF3 activity, the cells (9.0×10^4 cells per well) were seeded in a flat-bottomed 96-well plate. The next day, the cells were treated with compounds in a serial dilution for 24 hours. Subsequently, 20 μL of the cell culture supernatant and 50 μL of the QUANTI-Luc™ reagent (InvivoGen, #rep-qlc) were mixed in a 96-well white plate and then, luciferase activity was measured using an EnVision Xcite multilabel reader. The data were analyzed using Prism8 software (4-parameter).
(§2) The potency of STING agonist compounds was evaluated by the activation of Type I Interferon pathway using THP-1 IRF3 reporter assay.

hSTING HAQ variant = biological target: T2, hSTING HAQ variant (Homo sapiens, UniProt Q86WV6, G230A/H232R/R293Q/R71H); assay: STING activation, THP1-Dual IRF3 reporter assay, hSTING-HAQ cells; format: cell-based; conditions: IRF3 luciferase reporter, 24 hours, read-out: STING activity using hSTING-HAQ cells, HAQ EC50
T2 construct: host or cells: THP1-Dual cells (human monocytes)
T2 sequence (Q86WV6 whole entry R71H/G230A/H232R/R293Q): as the sequence (Q86WV6 whole entry H232R) above, with R71H, G230A, R293Q counted along it
Protocol: as §1, §2

hSTING H232 variant = biological target: T3, hSTING H232 variant (Homo sapiens, UniProt Q86WV6); assay: STING activation, THP1-Dual IRF3 reporter assay, hSTING-H232 cells; format: cell-based; conditions: IRF3 luciferase reporter, 24 hours, read-out: STING activity using hSTING-H232 cells, H232 EC50
T3 construct: host or cells: THP1-Dual cells (human monocytes) with knocked-in hSTING H232
Protocol: as §1, §2

human STING = biological target: T4, human STING (Homo sapiens, UniProt Q86WV6, H232R); assay: Direct STING binding, HUMAN STING WT BINDING KIT (Cisbio); conditions: direct binding to human STING WT protein in vitro; read-out: Binding potency EC50
T4 construct: purchased Cisbio 64BDSTGPEG
T4 sequence (Q86WV6 whole entry H232R): as the sequence (Q86WV6 whole entry H232R) above
Description: Additionally, for analysis of direct binding potency of STING agonist compounds described herein to human STING, HUMAN STING WT BINDING KIT (Cisbio, #64BDSTGPEG) was used according to the manufacture's instruction.

| AUC∞, norm [1] [kg·h/L] | Cmax, norm [1] [kg/L] | AUC(0-inf) [1] [ng·h/mL] | AUC(0-t) [1] [ng·h/mL] | C0 [1] [ng/mL] | Cmax [1] [ng/mL] | clearance [1] [mL/min/kg] | half-life [1] [min] | Vd [1] [L/kg] | EC50 (hSTING-WT (R232)) [nM] | EC50 (hSTING HAQ variant) [nM] | EC50 (hSTING H232 variant) [nM] | EC50 (human STING) [nM] | Structure (SMILES) | CC50 at 72 h [2] [nM] | CC50 at 72 h [3] [nM] |
| --- | --- | --- | --- | --- | --- | --- | --- | --- | --- | --- | --- | --- | --- | --- | --- |
| 0.66 ± 0.07 | 1.94 ± 0.30 | 990 ± 100 | 980 ± 100 | 4630 ± 860 | 2910 ± 450 | 25.5 | 54.6 ± 2.4 | 0.7 ± 0.15 | – | – | – | – | CCn1nc(C)cc1C(=O)Nc1nc2cc(C(N)=O)cc(OC)c2n1C/C=C/Cn1c(NC(=O)c2cc(C)nn2CC)nc2cc(C(N)=O)cc(OCCCN3CCOCC3)c21 [Comparative #1, reference compound] | 3.34 | 2.1 |
| 0.05 ± 0.01 | 0.16 ± 0.02 | 80 ± 10 | 70 ± 10 | 380 ± 50 | 240 ± 30 | 328 | 12 ± 1.8 | 5.1 ± 1.01 | 213 | 213 | 36.6 | 0.13 | CCc1nc(C)oc1C(=O)Nc1nc2cc(C(N)=O)cnc2n1C/C=C/Cn1c(NC(=O)c2oc(C)nc2CC)nc2cc(C(N)=O)cc(OCCCO)c21 [Comparative #2, reference compound] | 6.28 | – |
| 9.89 ± 0.90 | 4.11 ± 0.28 | 14800 ± 1340 | 14800 ± 1350 | 6500 ± 490 | 6160 ± 420 | 1.67 | 168 ± 16.2 | 0.32 ± 0.03 | 39.2 | 108 | 96.7 | – | CCn1nc(C)cc1C(=O)Nc1nc2cc(C(N)=O)cc(OC)c2n1C/C=C/Cn1c(NC(=O)c2cc(C)nn2CC)nc2cc(C(N)=O)cc(OC/C=C/Cn3cc(NC(=O)OCc4ccc(O[C@@H]5O[C@H](C(=O)O)[C@@H](O)[C@H](O)[C@H]5O)c(C(=O)NCCC(=O)O)c4)cn3)c21 [Compound 281] | 127 | – |
| – | – | – | – | – | – | – | – | – | 46.7 | 83.5 | 96.6 | 0.38 | CCn1nc(C)cc1C(=O)Nc1nc2cc(C(N)=O)cc(OC)c2n1C/C=C/Cn1c(NC(=O)c2cc(C)nn2CC)nc2cc(C(N)=O)cc(OC/C=C/CN3CCN(C(=O)OCc4ccc(O[C@@H]5O[C@H](C(=O)O)[C@@H](O)[C@H](O)[C@H]5O)c(C(=O)NCCOCCOCCO)c4)CC3=O)c21 [Compound 302] | 59.2 | 21.5 |

Second part, the molecule before the results:

| Structure (SMILES) | AUC∞, norm [1] [kg·h/L] | Cmax, norm [1] [kg/L] | AUC(0-inf) [1] [ng·h/mL] | AUC(0-t) [1] [ng·h/mL] | C0 [1] [ng/mL] | Cmax [1] [ng/mL] | clearance [1] [mL/min/kg] | half-life [1] [min] | Vd [1] [L/kg] | EC50 (hSTING-WT (R232)) [nM] | EC50 (hSTING HAQ variant) [nM] | EC50 (hSTING H232 variant) [nM] | EC50 (human STING) [nM] | CC50 at 72 h [2] [nM] | CC50 at 72 h [3] [nM] |
| --- | --- | --- | --- | --- | --- | --- | --- | --- | --- | --- | --- | --- | --- | --- | --- |
| CCn1nc(C)cc1C(=O)Nc1nc2cc(C(N)=O)cc(OC)c2n1C/C=C/Cn1c(NC(=O)c2cc(C)nn2CC)nc2cc(C(N)=O)cc(OC/C=C/CN3CCN(C(=O)OCc4ccc(O[C@@H]5O[C@H](C(=O)O)[C@@H](O)[C@H](O)[C@H]5O)c(C(=O)NCCOCCOCCN(C)C)c4)CC3=O)c21 [Compound 309] | – | – | – | – | – | – | – | – | – | 31.2 | 52 | 70.4 | 0.4 | 44.3 | – |
| CCn1nc(C)cc1C(=O)Nc1nc2cc(C(N)=O)cc(NC/C=C/Cn3cc(N(CCC(=O)O)C(=O)OCc4ccc(O[C@@H]5O[C@H](C(=O)O)[C@@H](O)[C@H](O)[C@H]5O)c(C(=O)NCCOCCOCCN(C)C)c4)cn3)c2n1C/C=C/Cn1c(NC(=O)c2cc(C)nn2CC)nc2cc(C(N)=O)cc(OC)c21 [Compound 363] | – | – | – | – | – | – | – | – | – | 403 | – | – | 0.8 | – | 86.1 |
| CCn1nc(C)cc1C(=O)Nc1nc2cc(C(N)=O)cc(OC/C=C/Cn3cc(NC(=O)OCc4ccc(O[C@@H]5O[C@H](C(=O)O)[C@@H](O)[C@H](O)[C@H]5O)c(C(=O)NCCOCCOCCO[C@@H]5O[C@H](C(=O)O)[C@@H](O)[C@H](O)[C@H]5O)c4)cn3)c2n1C/C=C/Cn1c(NC(=O)c2cc(C)nn2CC)nc2cc(C(N)=O)cc(OCCCC(=O)O)c21 [Compound 396] | – | – | – | – | – | – | – | – | – | 240 | – | – | – | – | 156 |
| CCn1nc(C)cc1C(=O)Nc1nc2cc(C(N)=O)cc(OC)c2n1C/C=C/Cn1c(NC(=O)c2cc(C)nn2CC)nc2cc(C(N)=O)cc(OC/C=C/CN3CCCN3C(=O)OCc3ccc(O[C@@H]4O[C@H](C(=O)O)[C@@H](O)[C@H](O)[C@H]4O)c(C(=O)NCCOCCOCCO)c3)c21 [Compound 422] | – | – | – | – | – | – | – | – | – | 45 | 477 | 119 | 0.92 | 207 | 32.1 |
| CCn1nc(C)cc1C(=O)Nc1nc2cc(C(N)=O)cc(OC)c2n1C/C=C/Cn1c(NC(=O)c2cc(C)nn2CC)nc2cc(C(N)=O)cc(OC/C=C/CN3CCCN3C(=O)OCc3ccc(O[C@@H]4O[C@H](C(=O)O)[C@@H](O)[C@H](O)[C@H]4O)c(C(=O)NCCOCCOCCN(C)C)c3)c21 [Compound 424] | – | – | – | – | – | – | – | – | – | 72 | 517 | 117 | 1.6 | 147 | 30.6 |

From patent US20260167659A1, “STING AGONISTS” (LIGACHEM BIOSCIENCES INC., priority 2022, published 2026)
